Experimental data taken from patent US20260250318A1, “COMPOSITIONS AND METHODS FOR CROSSING THE BLOOD BRAIN BARRIER” (VOYAGER THERAPEUTICS, INC., priority 2022, published 2026).

How the values were obtained:
[1] = system: brains, heart, liver, muscle, and DRG of the NHPs; assay: Maturation of TTM-001 and TTM-002 capsids, NGS enrichment in NHP tissues; format: in vivo; details: relative to AAV9 control
In short: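 Variants carry mutations within and flanking the loop IV peptide insert: positions 450–466 were triplet-randomized, while positions 449–466 received low-frequency point mutations. The combined pool went into two NHPs, and each peptide was scored by NGS enrichment ratio against AAV9.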

brain = assay: Matured TTM-001 and TTM-002 variants, NGS enrichment in mouse brain; format: in vivo, mice; details: relative to AAV9 control
[2] = NGS fold-enrichment of matured AAV capsid variants, NHP brain, RNA
[3] = NGS fold-enrichment, DRG of NHPs
[4] = NGS fold-enrichment, RNA, brain of NHPs
[5] = NGS fold-enrichment, heart of NHPs
[6] = NGS fold-enrichment, liver DNA of NHPs
[7] = NGS fold-enrichment, liver RNA of NHPs
[8] = NGS fold-enrichment, muscle of NHPs
[9] = NGS fold-enrichment, brain of mice

| Sequence | Fold Enrichment relative to AAV9, Brain (NHP) [1, 2] [fold] | Fold Enrichment relative to AAV9, DRG (NHP) ([1]; NHP DRG) [fold] | Fold Enrichment relative to AAV9, Heart (NHP) ([1]; NHP heart) [fold] | Fold Enrichment relative to AAV9, Liver DNA (NHP) ([1]; NHP liver, DNA) [fold] | Fold Enrichment relative to AAV9, Liver RNA (NHP) ([1]; NHP liver, RNA) [fold] | Fold Enrichment relative to AAV9, Muscle (NHP) ([1]; NHP muscle) [fold] | Fold Enrichment relative to AAV9, Brain (Mouse) (brain; mouse brain) [fold] | other results |
| --- | --- | --- | --- | --- | --- | --- | --- | --- |
| KTINGSGSPHSKAQSKVT | 56.373 | 0.000 | 0.050 | 0.390 | 1.021 | 0.014 | 76.115 |  |
| KTINGSGSPHSKAQSLQI | 53.778 | 0.000 | 0.186 | 0.047 | 0.022 | 0.000 | 51.543 |  |
| KTINGSGSPHSKAQSPPT |  |  |  |  |  |  |  | Fold Enrichment relative to AAV9, DRG (NHP) [1, 3]: 0.069 fold; Fold Enrichment relative to AAV9, Brain (NHP) [1, 4]: 71.632 fold; Fold Enrichment relative to AAV9, Heart (NHP) [1, 5]: 0.047 fold; Fold Enrichment relative to AAV9, Liver DNA (NHP) [1, 6]: 0.425 fold; Fold Enrichment relative to AAV9, Liver RNA (NHP) [1, 7]: 0.179 fold; Fold Enrichment relative to AAV9, Muscle (NHP) [1, 8]: 0.274 fold; Fold Enrichment relative to AAV9, Brain (Mouse) (brain; [9]): 97.111 fold |
| KTINGSGSPHSKAQSQQL |  |  |  |  |  |  |  | Fold Enrichment relative to AAV9, DRG (NHP) [1, 3]: 0.000 fold; Fold Enrichment relative to AAV9, Brain (NHP) [1, 4]: 70.539 fold; Fold Enrichment relative to AAV9, Heart (NHP) [1, 5]: 0.000 fold; Fold Enrichment relative to AAV9, Liver DNA (NHP) [1, 6]: 0.041 fold; Fold Enrichment relative to AAV9, Liver RNA (NHP) [1, 7]: 0.000 fold; Fold Enrichment relative to AAV9, Muscle (NHP) [1, 8]: 0.000 fold; Fold Enrichment relative to AAV9, Brain (Mouse) (brain; [9]): 51.126 fold |
| KTINGSGSPHSKAQSTMT | 51.249 | 0.018 | 0.002 | 0.341 | 0.321 | 0.002 | 73.213 |  |
| KTINGSGSPHSKAQSVHT | 53.226 | 0.000 | 0.004 | 0.217 | 0.446 | 0.000 | 76.110 |  |
| KTINGSGSPHSKAQTPPT |  |  |  |  |  |  |  | Fold Enrichment relative to AAV9, DRG (NHP) [1, 3]: 0.010 fold; Fold Enrichment relative to AAV9, Brain (NHP) [1, 4]: 64.657 fold; Fold Enrichment relative to AAV9, Heart (NHP) [1, 5]: 0.015 fold; Fold Enrichment relative to AAV9, Liver DNA (NHP) [1, 6]: 0.207 fold; Fold Enrichment relative to AAV9, Liver RNA (NHP) [1, 7]: 0.200 fold; Fold Enrichment relative to AAV9, Muscle (NHP) [1, 8]: 0.014 fold; Fold Enrichment relative to AAV9, Brain (Mouse) (brain; [9]): 54.179 fold |
| KTINGSGSPHSKAQVGHT | 52.624 | 0.000 | 0.000 | 0.192 | 0.535 | 0.006 | 106.448 |  |
| KTINGSGSPHSKAQVPAT | 54.475 | 0.000 | 0.002 | 0.223 | 0.782 | 0.000 | 137.743 |  |
| KTINGSGSPHSKAQVPPT | 57.316 | 0.000 | 0.012 | 0.200 | 0.257 | 0.000 | 90.220 |  |
| KTINGSGSPHSKAQVPST | 54.366 | 0.000 | 1.001 | 0.139 | 0.202 | 0.000 | 117.223 |  |
| KTINGSGSPHSKAQVQQI | 57.308 | 0.000 | 1.113 | 0.113 | 0.000 | 0.000 | 61.957 |  |
| KTINGSGSPHSKAQVRNT | 52.735 | 0.000 | 0.101 | 0.423 | 0.230 | 0.011 | 68.893 |  |
| KTINGSGSPHSKAQYIHT |  |  |  |  |  |  |  | Fold Enrichment relative to AAV9, Brain (NHP) ([1]; NGS fold-enrichment of RNA, NHP brain): 76.170 fold; Fold Enrichment relative to AAV9, DRG (NHP) [1, 3]: 0.000 fold; Fold Enrichment relative to AAV9, DRG (NHP) ([1]; NGS fold-enrichment, NHP DRG): 0.000 fold; Fold Enrichment relative to AAV9, Heart (NHP) ([1]; NGS fold-enrichment, NHP heart): 0.014 fold; Fold Enrichment relative to AAV9, Liver DNA (NHP) ([1]; NGS fold-enrichment, NHP liver DNA): 0.168 fold; Fold Enrichment relative to AAV9, Liver RNA (NHP) ([1]; NGS fold-enrichment, NHP liver RNA): 1.523 fold; Fold Enrichment relative to AAV9, Muscle (NHP) ([1]; NGS fold-enrichment, NHP muscle): 0.033 fold; Fold Enrichment relative to AAV9, Brain (NHP) [1, 4]: 76.170 fold; Fold Enrichment relative to AAV9, Heart (NHP) [1, 5]: 0.014 fold; Fold Enrichment relative to AAV9, Liver DNA (NHP) [1, 6]: 0.168 fold; Fold Enrichment relative to AAV9, Liver RNA (NHP) [1, 7]: 1.523 fold; Fold Enrichment relative to AAV9, Muscle (NHP) [1, 8]: 0.033 fold; Fold Enrichment relative to AAV9, Brain (Mouse) (brain; [9]): 59.649 fold; Fold Enrichment relative to AAV9, Brain (Mouse) (brain; NGS fold-enrichment, mouse brain): 59.649 fold |
| KTINGSGSPHSKAQYQHA |  |  |  |  |  |  |  | Fold Enrichment relative to AAV9, DRG (NHP) [1, 3]: 0.000 fold; Fold Enrichment relative to AAV9, Brain (NHP) [1, 4]: 64.435 fold; Fold Enrichment relative to AAV9, Heart (NHP) [1, 5]: 0.000 fold; Fold Enrichment relative to AAV9, Liver DNA (NHP) [1, 6]: 0.097 fold; Fold Enrichment relative to AAV9, Liver RNA (NHP) [1, 7]: 0.993 fold; Fold Enrichment relative to AAV9, Muscle (NHP) [1, 8]: 0.024 fold; Fold Enrichment relative to AAV9, Brain (Mouse) (brain; [9]): 57.278 fold |
| KTINGSGSPHSKAQYQNT | 50.099 | 0.000 | 0.008 | 0.119 | 0.017 | 0.000 | 71.846 |  |
| KTINGSGSPHSKAQYRAT | 51.008 | 0.000 | 0.158 | 0.120 | 0.690 | 0.000 | 50.650 |  |
| KTINGSGSPHSKAQYSVT | 57.130 | 0.000 | 0.093 | 0.302 | 1.235 | 0.000 | 60.023 |  |
| KTINGSGSPHSKARDWQT | 58.216 | 0.000 | 0.005 | 0.259 | 0.800 | 0.000 | 120.704 |  |
| KTINGSGSPHSKARGEQT | 54.207 | 0.025 | 0.006 | 0.327 | 0.309 | 0.005 | 128.098 |  |
| KTINGSGSPHSKARGLQT | 52.275 | 0.000 | 0.000 | 1.425 | 1.235 | 0.036 | 169.881 |  |
| KTINGSGSPHSKASPRQT | 50.227 | 0.088 | 0.005 | 0.530 | 1.761 | 0.068 | 67.241 |  |
